This is an account of results in ChEMBL document CHEMBL1130483, “The synthesis and evaluation of functionalized estratropones: Potent inhibitors of tubulin polymerization” (Bioorg Med Chem Lett, 1997).

Structures are written as SMILES.

This experiment concerns the target Tubulin (Bos taurus, UniProt Q6B856+Q862L2+Q862F3). As to the kind of experiment: Compound was evaluated for inhibition of tubulin polymerization using purified bovine brain tubulin, activity expressed as IC50. Type of experiment: functional, tissue-based.
For `C[C@]12CC[C@@H]3c4ccc(=O)c(N)cc4CC[C@H]3[C@@H]1CC[C@@H]2O`, the IC50 – broadly, the concentration that gives 50% inhibition – is 9.2 µM. `C[C@]12CC[C@@H]3c4ccc(=N)c(O)cc4CC[C@H]3[C@@H]1CC[C@@H]2O` had a half-maximal inhibitory concentration (IC50) of 14.4 µM. For `C[C@]12CC[C@@H]3c4ccc([N+](=O)[O-])c(=O)cc4CC[C@H]3[C@@H]1CC[C@@H]2O`, the IC50 turned out to be 52 µM. In the case of `C/N=c1\ccc2c(cc1O)CC[C@@H]1[C@@H]2CC[C@]2(C)[C@@H](O)CC[C@@H]12` it was 60.7 µM.

`C=Cc1ccc2c(cc1=O)CC[C@@H]1[C@@H]2CC[C@]2(C)[C@@H](O)CC[C@@H]12` displayed a 50% inhibitory concentration (IC50) of 14.2 µM. Against the preceding compound, the IC50 is about 4.3-fold lower.

`CN(C)c1cc2c(ccc1=O)[C@H]1CC[C@]3(C)[C@@H](O)CC[C@H]3[C@@H]1CC2` returned an IC50 of 46.8 µM. This IC50 lies about 3.3-fold higher than the previous one. The figure for `C[C@]12CC[C@@H]3c4ccc(=O)c(O)cc4CC[C@H]3[C@@H]1CC[C@@H]2O` is 22.8 µM.

`C[C@]12CC[C@@H]3c4cc(O)c(=O)ccc4CC[C@H]3[C@@H]1CC[C@@H]2O` registered an IC50 of 14.9 µM. In the case of `C[C@]12CC[C@@H]3c4cc(N)c(=O)ccc4CC[C@H]3[C@@H]1CC[C@@H]2O` it was 16.5 µM.

In the case of `CN(C)c1ccc2c(cc1=O)CC[C@@H]1[C@@H]2CC[C@]2(C)[C@@H](O)CC[C@@H]12`, the IC50 is 14.3 µM. The IC50 values of the last two compounds are within 1.5-fold of each other. In the case of `C/N=c1/cc2c(ccc1O)[C@H]1CC[C@]3(C)[C@@H](O)CC[C@H]3[C@@H]1CC2` it was 19.4 µM.
